{"source": "ChEMBL document CHEMBL5360555", "about": "“Structure-based discovery of novel α-aminoketone derivatives as dual p53-MDM2/MDMX inhibitors for the treatment of cancer” (Eur J Med Chem, 2023)", "key": {"HCT-116 [1]": {"system": "HCT-116", "experiment": "Reactivation of p53 pathway in human HCT-116 cells assessed as increase in p53 level treated at 0.6 to 2.4 uM for 48 hrs measured by Western blotting analysis", "assay_type": "cell-based", "conditions": "dose 0.6-2.4 µM"}, "SH-SY5Y [2]": {"system": "SH-SY5Y", "experiment": "Reactivation of p53 pathway in human SH-SY5Y cells assessed as increase in p53 level treated at 0.6 to 2.4 uM for 48 hrs measured by Western blotting analysis", "assay_type": "cell-based", "conditions": "dose 0.6-2.4 µM"}, "[3]": {"experiment": "Antiproliferative activity against human HCT116-p53-null cells overexpressing MDMX assessed as cell growth inhibition incubated for 72 hrs by CCK-8 assay", "assay_type": "functional, cell-based"}, "SH-SY5Y [4]": {"system": "SH-SY5Y", "experiment": "Induction of cell cycle arrest in human SH-SY5Y cells assessed as decrease in accumulation of cells at G2 phase incubated at 0.6 to 2.4 uM for 48 hrs by measured by flow cytometric analysis", "assay_type": "functional, cell-based", "conditions": "dose 0.6-2.4 µM"}, "SH-SY5Y [5]": {"system": "SH-SY5Y", "experiment": "Antiproliferative activity against human SH-SY5Y cells overexpressing MDMX assessed as cell growth inhibition incubated for 72 hrs by CCK-8 assay", "assay_type": "functional, cell-based"}, "SH-SY5Y [6]": {"system": "SH-SY5Y", "experiment": "Induction of apoptosis in human SH-SY5Y cells assessed as apoptotic cells at 0.6 uM for 48 hrs measured by Annexin V-PI based flow cytometric analysis relative to control", "assay_type": "functional"}, "SH-SY5Y [7]": {"system": "SH-SY5Y", "experiment": "Inhibition of cell invasion in human SH-SY5Y cells measured using transwell chamber by crystal violet staining based microscopic analysis", "assay_type": "functional", "conditions": "dose 0.2-0.6 µM"}, "SH-SY5Y [8]": {"system": "SH-SY5Y", "experiment": "Reactivation of p53 pathway in human SH-SY5Y cells assessed as increase in MDM2 level treated at 0.6 to 2.4 uM for 48 hrs measured by Western blotting analysis", "assay_type": "cell-based", "conditions": "dose 0.6-2.4 µM"}, "HCT-116 [9]": {"system": "HCT-116", "experiment": "Antiproliferative activity against human HCT-116 cells overexpressing MDM2 assessed as cell growth inhibition incubated for 72 hrs by CCK-8 assay", "assay_type": "functional, cell-based", "conditions": "HCT-116, 72 h"}, "[10]": {"molecular_target": "Cellular tumor antigen p53 (Homo sapiens) (UniProt P04637)", "sequence (P04637 whole entry, looked up)": "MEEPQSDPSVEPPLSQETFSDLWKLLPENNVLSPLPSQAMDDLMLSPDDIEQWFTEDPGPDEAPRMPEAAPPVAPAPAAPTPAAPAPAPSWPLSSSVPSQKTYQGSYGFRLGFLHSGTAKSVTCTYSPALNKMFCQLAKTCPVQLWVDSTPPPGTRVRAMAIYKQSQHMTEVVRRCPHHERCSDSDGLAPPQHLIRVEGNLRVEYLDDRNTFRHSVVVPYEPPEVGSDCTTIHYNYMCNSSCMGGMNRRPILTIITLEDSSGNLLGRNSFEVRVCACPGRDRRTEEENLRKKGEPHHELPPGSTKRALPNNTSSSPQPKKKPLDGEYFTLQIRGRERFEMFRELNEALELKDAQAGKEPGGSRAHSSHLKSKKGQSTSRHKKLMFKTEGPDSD", "experiment": "Reactivation of p53 pathway in human HCT-116 cells assessed as increase in p21 level treated at 0.6 to 2.4 uM for 48 hrs measured by Western blotting analysis", "assay_type": "cell-based", "conditions": "dose 0.6-2.4 µM"}, "[11]": {"molecular_target": "Cellular tumor antigen p53 (Homo sapiens) (UniProt P04637)", "experiment": "Reactivation of p53 pathway in human HCT-116 cells assessed as increase in MDMX level treated at 0.6 to 2.4 uM for 48 hrs measured by Western blotting analysis", "assay_type": "cell-based", "conditions": "dose 0.6-2.4 µM"}, "SH-SY5Y [12]": {"system": "SH-SY5Y", "experiment": "Reactivation of p53 pathway in human SH-SY5Y cells assessed as increase in MDMX level treated at 0.6 to 2.4 uM for 48 hrs measured by Western blotting analysis", "assay_type": "cell-based", "conditions": "dose 0.6-2.4 µM"}, "HCT-116 [13]": {"system": "HCT-116", "experiment": "Induction of cell cycle arrest in human HCT-116 cells assessed as decrease in accumulation of cells at G2 phase incubated at 0.6 to 2.4 uM for 48 hrs by measured by flow cytometric analysis", "assay_type": "functional, cell-based", "conditions": "dose 0.6-2.4 µM"}, "SH-SY5Y [14]": {"system": "SH-SY5Y", "experiment": "Induction of apoptosis in human SH-SY5Y cells assessed as apoptotic cells at 2.4 uM for 48 hrs measured by Annexin V-PI based flow cytometric analysis relative to control", "assay_type": "functional"}, "HCT-116 [15]": {"system": "HCT-116", "experiment": "Induction of apoptosis in human HCT-116 cells assessed as apoptotic cells at 0.6 uM for 48 hrs measured by Annexin V-PI based flow cytometric analysis relative to control", "assay_type": "functional"}, "SH-SY5Y [16]": {"system": "SH-SY5Y", "experiment": "Reactivation of p53 pathway in human SH-SY5Y cells assessed as increase in cleaved caspase 3level treated at 0.6 to 2.4 uM for 48 hrs measured by Western blotting analysis", "assay_type": "cell-based", "conditions": "dose 0.6-2.4 µM"}, "[17]": {"molecular_target": "E3 ubiquitin-protein ligase Mdm2 (Homo sapiens, UniProt Q00987)", "sequence (Q00987 whole entry, the tested form may be a part)": "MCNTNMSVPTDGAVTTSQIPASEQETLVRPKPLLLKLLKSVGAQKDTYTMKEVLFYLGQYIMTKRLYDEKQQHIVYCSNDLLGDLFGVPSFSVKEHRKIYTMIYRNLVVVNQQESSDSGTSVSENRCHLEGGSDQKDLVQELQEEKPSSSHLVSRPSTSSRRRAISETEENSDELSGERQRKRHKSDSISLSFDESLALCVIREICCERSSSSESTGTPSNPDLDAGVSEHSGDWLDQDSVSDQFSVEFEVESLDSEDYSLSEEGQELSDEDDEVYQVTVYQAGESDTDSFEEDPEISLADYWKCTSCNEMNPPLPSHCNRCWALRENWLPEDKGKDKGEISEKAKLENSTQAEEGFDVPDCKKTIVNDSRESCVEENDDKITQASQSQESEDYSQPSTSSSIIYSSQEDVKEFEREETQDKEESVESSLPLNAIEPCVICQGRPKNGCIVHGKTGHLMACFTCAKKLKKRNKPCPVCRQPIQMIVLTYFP", "experiment": "Binding affinity to MDM2 (1 to 118 residues) (unknown origin) assessed as inhibition constant incubated for 1 hr measured by fluorescence polarization assay"}, "HCT-116 [18]": {"system": "HCT-116", "experiment": "Inhibition of cell migration in human HCT-116 cells measured using transwell chamber by crystal violet staining based microscopic analysis", "assay_type": "functional", "conditions": "dose 0.2-0.6 µM"}, "[19]": {"molecular_target": "Tumour suppressor p53/oncoprotein Mdm2 (Homo sapiens) (UniProt P04637+Q00987)", "sequence (P04637 whole entry, looked up)": "as the sequence (P04637 whole entry, looked up) above", "sequence (Q00987 whole entry, looked up)": "as the sequence (Q00987 whole entry, the tested form may be a part) above", "experiment": "Inhibition of protein binding in p53/MDM2 in human HCT116 cells assessed as disruption of protein-protein interaction measured at 1.2 uM for 48 hrs by co-immunoprecipitation based Western blotting analysis", "assay_type": "cell-based", "conditions": "HCT-116"}, "[20]": {"molecular_target": "Cellular tumor antigen p53 (Homo sapiens) (UniProt P04637)", "experiment": "Reactivation of p53 pathway in human HCT-116 cells assessed as increase in MDM2 level treated at 0.6 to 2.4 uM for 48 hrs measured by Western blotting analysis", "assay_type": "cell-based", "conditions": "dose 0.6-2.4 µM"}, "SH-SY5Y [21]": {"system": "SH-SY5Y", "experiment": "Reactivation of p53 pathway in human SH-SY5Y cells assessed as increase in p21 level treated at 0.6 to 2.4 uM for 48 hrs measured by Western blotting analysis", "assay_type": "cell-based", "conditions": "dose 0.6-2.4 µM"}, "[22]": {"experiment": "Cytotoxicity against human BEAS-2B cells incubated for 72 hrs by CCK-8 assay", "assay_type": "toxicity, cell-based"}, "SH-SY5Y [23]": {"system": "SH-SY5Y", "experiment": "Inhibition of cell migration in human SH-SY5Y cells measured using transwell chamber by crystal violet staining based microscopic analysis", "assay_type": "functional", "conditions": "dose 0.2-0.6 µM"}, "SJSA-1": {"system": "SJSA-1", "experiment": "Antiproliferative activity against human SJSA-1 cells overexpressing MDM2 assessed as cell growth inhibition incubated for 72 hrs by CCK-8 assay", "assay_type": "functional, cell-based", "conditions": "SJSA-1, 72 h"}, "HCT-116 [24]": {"system": "HCT-116", "experiment": "Reactivation of p53 pathway in human HCT-116 cells assessed as increase in cleaved caspase 3 level treated at 0.6 to 2.4 uM for 48 hrs measured by Western blotting analysis", "assay_type": "cell-based", "conditions": "dose 0.6-2.4 µM"}, "SH-SY5Y [25]": {"system": "SH-SY5Y", "experiment": "Induction of cell cycle arrest in human SH-SY5Y cells assessed as increase in accumulation of cells at G1 phase incubated at 0.6 to 2.4 uM for 48 hrs by measured by flow cytometric analysis", "assay_type": "functional, cell-based", "conditions": "dose 0.6-2.4 µM"}, "HCT-116 [26]": {"system": "HCT-116", "experiment": "Inhibition of colony formation in human HCT-116 cells incubated at 0.6 uM for 8 to 15 days measured by crystal violet staining based microscopic analysis", "assay_type": "functional, cell-based", "conditions": "time 8-15 day"}, "HCT-116 [27]": {"system": "HCT-116", "experiment": "Inhibition of cell invasion in human HCT-116 cells measured using transwell chamber by crystal violet staining based microscopic analysis", "assay_type": "functional", "conditions": "dose 0.2-0.6 µM"}, "HCT-116 [28]": {"system": "HCT-116", "experiment": "Induction of apoptosis in human HCT-116 cells assessed as apoptotic cells at 2.4 uM for 48 hrs measured by Annexin V-PI based flow cytometric analysis relative to control", "assay_type": "functional"}, "SH-SY5Y [29]": {"system": "SH-SY5Y", "experiment": "Inhibition of colony formation in human SH-SY5Y cells incubated at 0.6 uM for 8 to 15 days measured by crystal violet staining based microscopic analysis", "assay_type": "functional, cell-based", "conditions": "time 8-15 day"}, "HCT-116 [30]": {"system": "HCT-116", "experiment": "Induction of cell cycle arrest in human HCT-116 cells assessed as increase in accumulation of cells at G1 phase incubated at 0.6 to 2.4 uM for 48 hrs by measured by flow cytometric analysis", "assay_type": "functional, cell-based", "conditions": "dose 0.6-2.4 µM"}, "[31]": {"experiment": "Cytotoxicity against human LO2 cells incubated for 72 hrs by CCK-8 assay", "assay_type": "toxicity, cell-based, L02"}, "Protein Mdm4": {"molecular_target": "T1, Protein Mdm4 (Homo sapiens, UniProt O15151)", "T1 sequence (O15151 whole entry)": "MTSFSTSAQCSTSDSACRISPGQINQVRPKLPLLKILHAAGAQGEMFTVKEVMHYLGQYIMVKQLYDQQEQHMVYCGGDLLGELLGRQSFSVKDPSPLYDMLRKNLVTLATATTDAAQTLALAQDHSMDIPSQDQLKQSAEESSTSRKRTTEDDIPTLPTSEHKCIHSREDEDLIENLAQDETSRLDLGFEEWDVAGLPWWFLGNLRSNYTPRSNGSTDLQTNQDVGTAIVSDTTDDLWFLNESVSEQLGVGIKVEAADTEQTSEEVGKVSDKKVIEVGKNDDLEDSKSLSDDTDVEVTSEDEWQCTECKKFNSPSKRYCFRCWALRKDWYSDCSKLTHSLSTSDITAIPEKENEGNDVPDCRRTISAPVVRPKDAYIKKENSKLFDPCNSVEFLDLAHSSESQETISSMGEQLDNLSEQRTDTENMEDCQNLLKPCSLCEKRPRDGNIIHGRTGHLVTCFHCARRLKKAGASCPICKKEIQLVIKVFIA", "experiment": "Binding affinity to MDMX (1 to 118 residues) (unknown origin) assessed as inhibition constant incubated for 1 hr measured by fluorescence polarization assay"}}, "note": "Calls of active or inactive are those of the source. No cut-off for these calls is given here."}
{"compound": "O=C(c1ccc(Cl)cc1)C(c1ccc(F)cc1Cl)N(C(=O)CCC(=O)N1CCNCC1)c1ccc(Cl)cc1", "note": "(stereo not drawn)", "values": [{"measurement": "Activity", "setting": "HCT-116 [1]", "value": "Active"}, {"measurement": "Activity", "setting": "SH-SY5Y [2]", "value": "Active"}, {"measurement": "IC50", "setting": "[3]", "value": 14000, "unit": "nM"}, {"measurement": "Activity", "setting": "SH-SY5Y [4]", "value": "Active"}, {"measurement": "IC50", "setting": "SH-SY5Y [5]", "value": 540, "unit": "nM"}, {"measurement": "Activity", "setting": "SH-SY5Y [6]", "value": 15.69, "unit": "%"}, {"measurement": "inhibition", "setting": "SH-SY5Y [7]", "value": "Dose-Dependent Effect"}, {"measurement": "Activity", "setting": "SH-SY5Y [8]", "value": "Active"}, {"measurement": "IC50", "setting": "HCT-116 [9]", "value": 680, "unit": "nM"}, {"measurement": "Activity", "setting": "[10]", "value": "Active"}, {"measurement": "Activity", "setting": "[11]", "value": "Active"}, {"measurement": "Activity", "setting": "SH-SY5Y [12]", "value": "Active"}, {"measurement": "Activity", "setting": "HCT-116 [13]", "value": "Active"}, {"measurement": "Activity", "setting": "SH-SY5Y [14]", "value": 40.8, "unit": "%"}, {"measurement": "Activity", "setting": "HCT-116 [15]", "value": 13.63, "unit": "%"}, {"measurement": "Activity", "setting": "SH-SY5Y [16]", "value": "Active"}, {"measurement": "Ki", "setting": "[17]", "value": 230, "unit": "nM"}, {"measurement": "inhibition", "setting": "HCT-116 [18]", "value": "Dose-Dependent Effect"}, {"measurement": "inhibition", "setting": "[19]", "value": "Active"}, {"measurement": "Activity", "setting": "[20]", "value": "Active"}, {"measurement": "Activity", "setting": "SH-SY5Y [21]", "value": "Active"}, {"measurement": "IC50 at 72 h", "setting": "[22]", "value": 18000, "unit": "nM"}, {"measurement": "inhibition", "setting": "SH-SY5Y [23]", "value": "Dose-Dependent Effect"}, {"measurement": "IC50", "setting": "SJSA-1", "value": 580, "unit": "nM"}, {"measurement": "Activity", "setting": "HCT-116 [24]", "value": "Active"}, {"measurement": "Activity", "setting": "SH-SY5Y [25]", "value": "Active"}, {"measurement": "inhibition", "setting": "HCT-116 [26]", "value": "Active"}, {"measurement": "inhibition", "setting": "HCT-116 [27]", "value": "Dose-Dependent Effect"}, {"measurement": "Activity", "setting": "HCT-116 [28]", "value": 37.6, "unit": "%"}, {"measurement": "inhibition", "setting": "SH-SY5Y [29]", "value": "Active"}, {"measurement": "Activity", "setting": "HCT-116 [30]", "value": "Active"}, {"measurement": "IC50 at 72 h", "setting": "[31]", "value": 15900, "unit": "nM"}, {"measurement": "Ki", "setting": "Protein Mdm4", "value": 2450, "unit": "nM"}]}
